Source: US20190231841A1, “CENCHRUS CILIARIS L. AS AN ANTICANCER AGENT” (KING SAUD UNIVERSITY, priority 2018, published 2019)
Where a name gives a salt, the structure may show the parent alone.

Columns and labels:
Format in all cases: cell-based
[1] = test system: HepG-2 (Hepatocellular carcinoma); test: MTT cytotoxicity assay, HepG-2; settings: Homo sapiens, HepG2, 24 h incubation
Description: (§1) The cell lines A-549 (Lung carcinoma), CACO (Colorectal carcinoma), HCT-116 (Colon carcinoma), Hela (Cervical carcinoma), HepG-2 (Hepatocellular carcinoma), and MCF-7 (Breast carcinoma) were obtained from the Regional Center for Mycology and Biotechnology, Al-Azhar University, Cairo, Egypt.
(§2) The antitumor assay was carried out on the above cell lines as published by A Ooi et al., ‘A Guide to Transient Expression of Membrane Proteins in HEK-293 Cells for Functional Characterization”, Front. Physiol. 7:300, published online 19 Jul. 2016, for all of the extracts which have been obtained in section above (A, R, AL, APC, RPC, APB, RPB, AR &RR). Briefly, the cell lines were suspended in medium at a concentration of 5×10^4 cell/well in Corning® 96-well tissue culture plates and then incubated for 24 hr. The tested extracts were then added into 96-well plates (six replicates) to achieve seven concentrations for each extract. […] After incubation for 24 h, the numbers of viable cells were determined by the MTT assay method. […] Then, the optical density was measured at 590 nm with the microplate reader to determine the number of viable cells. The percentage of viability was calculated as: (ODt/ODc)×100%, where ODt is the mean optical density of wells treated with the tested sample and ODc is the mean optical density of untreated cells. […]

[2] = test system: A-549 (Lung carcinoma); test: MTT cytotoxicity assay, A-549; settings: Homo sapiens, A549, 24 h, 24 h incubation
Description: as §1, §2

[3] = test system: MCF-7 (Breast carcinoma); test: MTT cytotoxicity assay, MCF-7; settings: Homo sapiens, MCF7, 24 h incubation
Description: as §1, §2

[4] = test system: HCT-116 (Colon carcinoma); test: MTT cytotoxicity assay, HCT-116; settings: Homo sapiens, 24 h incubation
Description: as §1, §2

[5] = test system: CACO (Colorectal carcinoma); test: MTT cytotoxicity assay, CACO; settings: 24 h incubation
Description: as §1, §2

SMILES: CC[C@]1(O)C[C@@H]2CN(CCc3c([nH]c4ccccc34)[C@@](C(=O)OC)(c3cc4c(cc3OC)N(C)[C@H]3[C@@](O)(C(=O)OC)[C@H](OC(C)=O)[C@]5(CC)C=CCN6CC[C@]43[C@@H]65)C2)C1 [Vinblastine sulfate]
- IC50 [1]: 2.93 ± 0.3 µg/mL
- IC50 [2]: 30.3 ± 1.4 µg/mL
- IC50 [3]: 5.9 ± 0.4 µg/mL
- IC50 [4]: 3.5 ± 0.2 µg/mL
- IC50 ([5]; 24 h): 24.6 ± 0.7 µg/mL
- IC50 CACO (Colorectal carcinoma) [5]: 30.3 ± 1.4 µg/mL
